ChEMBL document CHEMBL5120876, “Design, synthesis and biological evaluation of novel indole derivatives as gut-selective NaPi2b inhibitors” (Bioorg Med Chem, 2022)
Converted amounts (≈) assume the structure as drawn. Blank lines part the entries; values can stand above or below the compound they belong to. The source made the active and inactive calls. The calls are words filed in the database; no cut-off is given here.

Experiments:
[1] = molecular target: T1, Sodium-dependent phosphate transport protein 2B (Homo sapiens, UniProt O95436); assay: Inhibition of human NaPi2b expressed in CHO-K1 cells assessed as reduction in [33P] uptake preincubated with compound for 30 mins followed by [33P]O4 addition and measured after 30 mins by TopCount liquid scintillation counting method; assay type: cell-based
T1 sequence (O95436 whole entry): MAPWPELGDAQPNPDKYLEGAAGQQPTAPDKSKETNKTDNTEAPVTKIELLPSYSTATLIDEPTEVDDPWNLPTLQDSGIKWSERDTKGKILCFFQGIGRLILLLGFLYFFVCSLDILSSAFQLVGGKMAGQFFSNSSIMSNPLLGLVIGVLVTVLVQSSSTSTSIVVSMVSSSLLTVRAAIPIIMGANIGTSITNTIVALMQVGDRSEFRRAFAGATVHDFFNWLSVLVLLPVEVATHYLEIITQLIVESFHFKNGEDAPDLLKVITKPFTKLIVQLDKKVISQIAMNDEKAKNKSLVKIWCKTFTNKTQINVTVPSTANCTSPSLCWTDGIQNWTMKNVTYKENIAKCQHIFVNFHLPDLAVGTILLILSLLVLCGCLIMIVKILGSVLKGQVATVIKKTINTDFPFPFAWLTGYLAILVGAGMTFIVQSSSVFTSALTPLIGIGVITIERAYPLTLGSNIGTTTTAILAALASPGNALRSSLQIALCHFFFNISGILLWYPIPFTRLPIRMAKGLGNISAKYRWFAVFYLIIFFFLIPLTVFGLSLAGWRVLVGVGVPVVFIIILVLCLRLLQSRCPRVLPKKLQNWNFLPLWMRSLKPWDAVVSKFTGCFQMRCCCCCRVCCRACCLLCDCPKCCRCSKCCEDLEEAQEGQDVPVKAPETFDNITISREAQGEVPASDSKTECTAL

[2] = molecular target: T1, Sodium-dependent phosphate transport protein 2B; assay: Inhibition of NaPi2b (unknown origin)
[3] = molecular target: T2, Sodium-dependent phosphate transport protein 2B (Rattus norvegicus, UniProt Q9JJ09); assay: Inhibition of rat NaPi2b expressed in CHO-K1 cells assessed as reduction in [33P] uptake preincubated with compound for 30 mins followed by [33P]O4 addition and measured after 10 mins by TopCount liquid scintillation counting method; assay type: cell-based
T2 sequence (Q9JJ09 whole entry): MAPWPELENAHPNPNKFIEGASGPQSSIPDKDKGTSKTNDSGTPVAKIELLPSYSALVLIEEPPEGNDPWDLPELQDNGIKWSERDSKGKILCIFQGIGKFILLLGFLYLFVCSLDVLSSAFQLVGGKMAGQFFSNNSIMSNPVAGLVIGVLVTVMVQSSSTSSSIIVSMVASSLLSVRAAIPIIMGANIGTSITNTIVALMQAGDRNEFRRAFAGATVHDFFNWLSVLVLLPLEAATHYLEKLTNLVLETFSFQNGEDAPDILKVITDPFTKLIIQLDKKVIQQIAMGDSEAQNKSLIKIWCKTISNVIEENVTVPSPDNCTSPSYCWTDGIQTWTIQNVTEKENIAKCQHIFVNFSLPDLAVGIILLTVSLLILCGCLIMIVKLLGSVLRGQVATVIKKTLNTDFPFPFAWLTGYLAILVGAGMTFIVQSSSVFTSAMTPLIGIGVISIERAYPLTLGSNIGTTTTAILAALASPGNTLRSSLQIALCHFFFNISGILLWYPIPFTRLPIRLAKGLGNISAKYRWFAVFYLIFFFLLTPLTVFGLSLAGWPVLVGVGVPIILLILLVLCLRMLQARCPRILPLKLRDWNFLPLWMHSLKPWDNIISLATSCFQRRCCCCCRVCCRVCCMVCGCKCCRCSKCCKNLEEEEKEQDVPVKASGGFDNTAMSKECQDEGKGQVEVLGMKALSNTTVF

[4] = AUC (0 to t) in Sprague-Dawley rat at 1.17 mg/kg, iv administered as single dose by LC-MS analysis; assay type: ADME, organism-based; parameters: dose 1.17 mg/kg, route iv; details: in vivo
[5] = Cmax in Sprague-Dawley rat at 10 mg/kg, po administered as single dose by LC-MS analysis; assay type: ADME, organism-based; parameters: dose 10 mg/kg, route po; details: in vivo
[6] = AUC (0 to t) in Sprague-Dawley rat at 10 mg/kg, po administered as single dose by LC-MS analysis; assay type: ADME, organism-based; parameters: dose 10 mg/kg, route po; details: in vivo
[7] = Oral bioavailability in Sprague-Dawley rat at 10 mg/kg administered as single dose by LC-MS analysis; assay type: ADME, organism-based; details: in vivo
[8] = Drug excretion in Sprague-Dawley rat feces assessed as cumulative amount of unchanged drug excreted at 10 mg/kg, po administered as single dose and measured within 24 hrs by LC-MS analysis; assay type: ADME, organism-based; details: faeces, read-out: Ae
[9] = Solubility of the compound in fasted state simulated intestinal fluid at pH 6.5 incubated for 24 hrs by HPLC analysis; assay type: physicochemical
[10] = Solubility of the compound in fed state simulated intestinal fluid at pH 5.0 incubated for 24 hrs by HPLC analysis; assay type: physicochemical
[11] = Drug concentration in Sprague-Dawley rat intestine at 10 mg/kg, po administered as single dose; assay type: ADME, organism-based; details: in vivo
[12] = tested on: Rattus norvegicus; assay: In vivo inhibition of NaPi2b in Sprague-Dawley rat assessed as reduction in phosphate absorption at 10 mg/kg, po preincubated for 5 mins followed by addition of NaH2PO4 containing 32P-phosphate solution and measured after 15 to 30 mins by liquid scintillation counting method; assay type: functional, organism-based; details: time 20.0 min
[13] = molecular target: T3, Sodium-dependent phosphate transport protein 2B (Homo sapiens) (UniProt O95436); assay: Inhibition of human NaPi2b at 1 uM relative to control
T3 sequence (whole entry): T1 sequence (O95436 whole entry)

[14] = AUC (0 to t) in Sprague-Dawley rat at 1 mg/kg, iv administered as single dose by LC-MS analysis; assay type: ADME, organism-based; parameters: dose 1 mg/kg, route iv; details: in vivo

IC50 [1]: 0.538 µM
SMILES: CCC(CC)N(CCN(C)C(=O)CCC(=O)O)Cc1cccc(C(=O)Nc2[nH]c3ccccc3c2C(=O)Nc2ccccc2)c1

IC50 [2]: 1 µM
SMILES: CCN(CC)c1ccc(NC(=O)c2cccc(CSCCOCCOCCOCCOCCOCCOCCOCCOCCC(=O)O)c2)c(-c2cc(C(=O)NCc3cccc(C(F)(F)F)c3)ccn2)c1

IC50 [1]: 0.356 µM
SMILES: CC(C)N(CCN(C)C(=O)CCC(=O)O)Cc1cccc(C(=O)Nc2[nH]c3ccccc3c2C(=O)Nc2ccc(CCCc3ccc(C(=O)O)cc3)cc2)c1

IC50 [1]: 0.267 µM
SMILES: CCC(CC)N(CCN(C)S(=O)(=O)NC(=O)OCC(=O)O)Cc1cccc(C(=O)Nc2[nH]c3ccccc3c2C(=O)Nc2ccc(CCCc3ccc(C(=O)O)cc3)cc2)c1

IC50 [1]: 0.078 µM
SMILES: CCCC(CCC)N(CCN(C)C(=O)CCC(=O)O)Cc1cccc(C(=O)Nc2[nH]c3ccccc3c2C(=O)Nc2ccc(CCCc3ccc(C(=O)O)cc3)cc2)c1

IC50 [1]: 0.257 µM
SMILES: CCN([C@H]1CC[C@H](C(=O)O)CC1)S(=O)(=O)c1cccc(C(=O)Nc2[nH]c3ccccc3c2C(=O)Nc2ccc(CCCc3ccc(C(=O)O)cc3)cc2)c1

IC50 [1]: 0.535 µM
SMILES: CCC(CC)N(CCN(C)C(=O)CCC(=O)NCCOCCOCCOCCC(=O)O)Cc1cccc(C(=O)Nc2[nH]c3ccccc3c2C(=O)Nc2ccc(CCCc3ccc(C(=O)O)cc3)cc2)c1

IC50 [1]: 2.58 µM
SMILES: CN(Cc1cccc(C(=O)Nc2[nH]c3ccccc3c2C(=O)Nc2ccc(CCCc3ccc(C(=O)O)cc3)cc2)c1)C1CCN(C(=O)CCC(=O)O)C1 (stereo not given)

IC50 [1]: 0.369 µM
SMILES: CCC(CC)N(CCN(C)C(=O)NCC(=O)O)Cc1cccc(C(=O)Nc2[nH]c3ccccc3c2C(=O)Nc2ccc(CCCc3ccc(C(=O)O)cc3)cc2)c1

IC50 [1]: 0.401 µM
SMILES: CCC(CC)N(CCN(C)C(=O)CN1C(=O)NC2NC(=O)NC21)Cc1cccc(C(=O)Nc2[nH]c3ccccc3c2C(=O)Nc2ccc(CCCc3ccc(C(=O)O)cc3)cc2)c1 (stereo not given)

IC50 [1]: 1.02 µM
SMILES: CN(C(=O)CCC(=O)O)C1CCN(Cc2cccc(C(=O)Nc3[nH]c4ccccc4c3C(=O)Nc3ccc(CCCc4ccc(C(=O)O)cc4)cc3)c2)C1 (stereo not given)

IC50 [1]: 0.166 µM
IC50 [3]: 0.098 µM
AUC(0-t) [4]: 0.17 µg·h/mL
Cmax [5]: 0.0155 µg/mL
AUC(0-t) [6]: 0.0154 µg·h/mL
bioavailability [7]: 1.1%
solubility at 24 h [9]: > 0.482 mg/mL
solubility at 24 h [10]: > 0.479 mg/mL
Ct [11]: 34 µg/mL
SMILES: CCC(CC)N(CCN(C)C(=O)CCC(=O)NCCOCCOCCOCCO)Cc1cccc(C(=O)Nc2[nH]c3ccccc3c2C(=O)Nc2ccc(CCCc3ccc(C(=O)O)cc3)cc2)c1
dose excreted at 24 h [8]: 58.8%
inhibition [12]: Active

inhibition [13]: 87%
SMILES: CCC(CC)N(CCN(C)C(=O)CCC(=O)O)Cc1cccc(C(=O)Nc2sc3c(c2C(=O)Nc2ccc(CCc4ccc(C(=O)O)cc4)cc2)CCCC3)c1

IC50 [1]: 0.448 µM
SMILES: CCC(CC)N(CCN(C)C(=O)CCC(=O)O)Cc1cccc(C(=O)Nc2[nH]c3ccccc3c2C(=O)Nc2ccc(Cc3ccc(C(=O)O)cc3)cc2)c1

IC50 [1]: 0.401 µM
SMILES: CCC(CC)N(CCN(C)C(=O)CNS(=O)(=O)c1c[nH]c(C(N)=O)c1)Cc1cccc(C(=O)Nc2[nH]c3ccccc3c2C(=O)Nc2ccc(CCCc3ccc(C(=O)O)cc3)cc2)c1

IC50 [1]: 0.071 µM
IC50 [3]: 0.028 µM
AUC(0-t) [14]: 0.834 µg·h/mL
Cmax [5]: 0.568 µg/mL
AUC(0-t) [6]: 1.09 µg·h/mL
bioavailability [7]: 13.1%
solubility at 24 h [9]: 0.103 mg/mL (≈ 133 µM)
solubility at 24 h [10]: 0.264 mg/mL (≈ 341 µM)
Ct [11]: 39 µg/mL
SMILES: CCC(CC)N(CCN(C)C(=O)CCC(=O)O)Cc1cccc(C(=O)Nc2[nH]c3ccccc3c2C(=O)Nc2ccc(CCCc3ccc(C(=O)O)cc3)cc2)c1
dose excreted at 24 h [8]: 68.1%
